From PMC4737580 (Bioorganic & medicinal chemistry letters, 2010)
Blank lines part the entries; values can stand above or below the compound they belong to.

Legend:
[1] = molecular target: furin (Homo sapiens, UniProt P09958); experiment: Furin inhibition, Ki from Dixon plots; type: biochemical
[2] = general statement, no reference given; cited from earlier work

Chain of furin (P09958 108-794): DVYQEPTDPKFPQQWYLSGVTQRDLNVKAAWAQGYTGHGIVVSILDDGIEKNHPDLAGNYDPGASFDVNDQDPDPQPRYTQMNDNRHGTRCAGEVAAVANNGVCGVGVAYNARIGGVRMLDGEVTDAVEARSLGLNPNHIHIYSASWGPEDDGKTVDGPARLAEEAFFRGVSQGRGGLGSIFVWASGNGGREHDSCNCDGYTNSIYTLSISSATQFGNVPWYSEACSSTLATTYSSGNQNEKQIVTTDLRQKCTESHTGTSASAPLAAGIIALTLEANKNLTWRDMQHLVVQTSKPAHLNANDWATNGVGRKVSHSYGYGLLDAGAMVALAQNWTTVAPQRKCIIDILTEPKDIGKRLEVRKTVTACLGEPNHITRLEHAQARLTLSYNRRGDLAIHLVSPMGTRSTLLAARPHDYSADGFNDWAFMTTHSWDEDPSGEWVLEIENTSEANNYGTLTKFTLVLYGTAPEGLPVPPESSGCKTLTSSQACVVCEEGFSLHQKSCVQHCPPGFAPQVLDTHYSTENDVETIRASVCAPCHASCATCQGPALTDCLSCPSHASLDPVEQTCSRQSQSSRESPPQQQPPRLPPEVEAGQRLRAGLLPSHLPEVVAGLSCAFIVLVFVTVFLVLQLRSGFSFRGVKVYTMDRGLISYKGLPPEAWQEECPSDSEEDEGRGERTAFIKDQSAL

Ki ([1]; Ki, Ki values from Dixon plots): 25 µM
SMILES: N=C(N)N/N=C/c1ccccc1OCc1ccc(Cl)cc1 [Compound 2]

fold improved Ki compared to 1 ([1]; relative to compound 1): approximately 4 fold
SMILES: C/C(=N\NC(=N)N)c1cc(NC(=O)CCCNC(=N)N)cc(/C(C)=N/NC(=N)N)c1 [Compound 17]

SMILES: N=C(N)N [guanidine]
pKa [2]: approximately 13
